Reference: patent US20080167314A1, “Condensed Imidazole Compound And Use Thereof” (priority 2004, published 2008)
Counter-ions that a name gives are not always drawn.

First: CCC(=O)N(C(=O)CC)c1cc(-c2c(-c3cccc(C)c3)nc3cccnn23)ccn1 [Example 22, N-{4-[2-(3-Methylphenyl)imidazo[1,2-b]pyridazin-3-yl]pyridin-2-yl}-N-propionylpropanamide]
Second: Cc1cccc(-c2nc3cccnn3c2-c2ccnc(N(C(=O)C3CC3)C(=O)C3CC3)c2)c1 [Example Compound 23-1, N-(cyclopropylcarbonyl)-N-{4-[2-(3-methylphenyl)imidazo[1,2-b]pyridazin-3-yl]pyridin-2-yl}cyclopropanecarboxamide]
The melting point of the first is higher: 210 to 211 °C for the first, 173 to 175 °C for the second.

First: Cc1cc(-c2nc3c(C)cc(Cl)nn3c2-c2ccnc(NC(=O)c3ccc(F)cc3)c2)ccc1F [Example 41-2, N-{4-[6-chloro-2-(4-fluoro-3-methylphenyl)-8-methylimidazo[1,2-b]pyridazin-3-yl]-2-pyridyl}-4-fluorobenzamide]
Second: Cc1cc(-c2nc3cccnn3c2-c2ccnc(NC(=O)c3ccc(Cl)cc3)c2)ccc1F (as salt: methanesulfonate) [Example 62, 4-Chloro-N-{4-[2-(4-fluoro-3-methylphenyl)imidazo[1,2-b]pyridazin-3-yl]pyridin-2-yl}benzamide methanesulfonate]
The melting point of the first is lower: 235 to 236 °C for the first, 239 to 241 °C for the second.

First: CCC(=O)Nc1cc(-c2c(-c3ccc(F)c(C)c3)nc3cccnn23)ccn1 [Example Compound 21-18, N-{4-[2-(4-fluoro-3-methylphenyl)imidazo[1,2-b]pyridazin-3-yl]pyridin-2-yl}propanamide]
Second: CCCC(=O)Nc1cc(-c2c(-c3ccc(F)c(C)c3)nc3cccnn23)ccn1 [Example 42-4, N-{4-[2-(4-fluoro-3-methylphenyl)imidazo[1,2-b]pyridazin-3-yl]pyridin-2-yl}butanamide]
The melting point of the first is lower: 166 to 167 °C for the first, 181 to 183 °C for the second.

Compared with `Cc1cc(-c2nc3cccnn3c2-c2ccnc(NC(=O)c3ccc(C(F)(F)F)cc3)c2)ccc1F` [Example 42-13, N-{4-[2-(4-fluoro-3-methylphenyl)imidazo[1,2-b]pyridazin-3-yl]pyridin-2-yl}-4-(trifluoromethyl)benzamide], `Cc1cc(-c2nc3cccnn3c2-c2ccnc(NC(=O)c3ccc(OC(F)(F)F)cc3)c2)ccc1F` [Example 42-14, N-{4-[2-(4-fluoro-3-methylphenyl)imidazo[1,2-b]pyridazin-3-yl]pyridin-2-yl}-4-(trifluoromethoxy)benzamide] is higher in melting point: 224 to 225 °C for the first, 225 to 226 °C for the second.

First: Cc1cc(-c2nc3cccnn3c2-c2ccnc(N3CCCNC3=O)c2)ccc1F [Example 55, 1-{4-[2-(4-Fluoro-3-methylphenyl)imidazo[1,2-b]pyridazin-3-yl]pyridin-2-yl}tetrahydropyrimidine-2-(1H)-one]
Second: Cc1cc(-c2nc3cccnn3c2-c2ccnc(NC(=O)N3CCOCC3)c2)ccc1F.Cl
The melting point of the first is higher: 213 to 215 °C for the first, 164 to 166 °C for the second.

`CCNC(=O)Nc1cc(-c2c(-c3ccc(F)c(C)c3)nc3cc(C(C)(C)C)cnn23)ccn1` [Example 48-4, N-{4-[7-tert-butyl-2-(4-fluoro-3-methylphenyl)imidazo[1,2-b]pyridazin-3-yl]-2-pyridyl}-N′-ethylurea] and `Cc1cc(-c2nc3cc(C(C)(C)C)cnn3c2-c2ccnc(N)c2)ccc1F` [Example Compound 37-3, 4-[7-tert-butyl-2-(4-fluoro-3-methylphenyl)imidazo[1,2-b]pyridazin-3-yl]-2-pyridylamine] fall in the same range of melting point: 212 to 213 °C for the first, 212 to 213 °C for the second.

Compared with `Cc1cccc(-c2nc3cccnn3c2-c2ccnc(NC(=O)N3CCc4ccccc4C3)c2)c1` [Example Compound 32-2, N-{4-[2-(3-methylphenyl)imidazo[1,2-b]pyridazin-3-yl]pyridin-2-yl}-3,4-dihydroisoquinoline-2-(1H)carboxamide], `Cc1cccc(-c2nc3cccnn3c2-c2ccnc(NC3CCCc4ccccc43)c2)c1` (stereo not drawn) [Example Compound 6-12, 4-[2-(3-methylphenyl)imidazo[1,2-b]pyridazin-3-yl]-N-(1,2,3,4-tetrahydtonaphthalen-1-yl)pyridin-2-amine] is higher in melting point: 122 to 124 °C for the first, 195 to 196 °C for the second.

Compared with `Cc1cc(-c2nc3cccnn3c2-c2ccnc(NC(=O)c3ccc(C(F)(F)F)nc3)c2)ccc1F` [Example 42-26, N-{4-[2-(4-fluoro-3-methylphenyl)imidazo[1,2-b]pyridazin-3-yl]pyridin-2-yl}-6-(trifluoromethyl)nicotinamide], `Cc1cc(-c2nc3cccnn3c2-c2ccnc(NC(=O)c3ccc(Cl)cc3)c2)ccc1F` [Example 42-7, 4-chloro-N-{4-[2-(4-fluoro-3-methylphenyl)imidazo[1,2-b]pyridazin-3-yl]pyridin-2-yl}benzamide] is lower in melting point: 225 to 226 °C for the first, 208 to 209 °C for the second.

Compared with `Cc1cccc(-c2nc3cccnn3c2-c2ccnc(NCc3ccccc3)c2)c1` [Example Compound 6-23, N-benzyl-4-[2-(3-methylphenyl)imidazo[1,2-b]pyridazin-3-yl]pyridin-2-amine], `Cc1cccc(-c2nc3cccnn3c2-c2ccnc(NCc3cccs3)c2)c1` [Example Compound 6-15, 4-[2-(3-methylphenyl)imidazo[1,2-b]pyridazin-3-yl]-N-(2-thienylmethyl)pyridin-2-amine] is lower in melting point: 193 to 194 °C for the first, 185 to 186 °C for the second.

First: Cc1cc(-c2nc3cccnn3c2-c2ccnc(NC(=O)c3cccc4ccccc34)c2)ccc1F [Example 42-20, N-{4-[2-(4-fluoro-3-methylphenyl)imidazo[1,2-b]pyridazin-3-yl]pyridin-2-yl}-1-naphthamide]
Second: Cc1cc(-c2nc3cccnn3c2-c2ccnc(NC(=O)c3ccc4ccccc4c3)c2)ccc1F [Example 42-19, N-{4-[2-(4-fluoro-3-methylphenyl)imidazo[1,2-b]pyridazin-3-yl]pyridin-2-yl}-2-naphthamide]
The melting point of the first is higher: 252 to 253 °C for the first, 187 to 188 °C for the second.

First: Cc1cc(-c2nc3cccnn3c2-c2ccnc(NC(=O)CCS(C)(=O)=O)c2)ccc1F [Example 56, N-{4-[2-(4-Fluoro-3-methylphenyl)imidazo[1,2-b]pyridazin-3-yl]pyridin-2-yl}-3-(methylsulfonyl)propanamide]
Second: CSCCC(=O)Nc1cc(-c2c(-c3ccc(F)c(C)c3)nc3cccnn23)ccn1 [Example 42-5, N-{4-[2-(4-fluoro-3-methylphenyl)imidazo[1,2-b]pyridazin-3-yl]pyridin-2-yl}-3-(methylthio)propanamide]
The melting point of the first is higher: 227 to 228 °C for the first, 158 to 159 °C for the second.

First: Cc1cccc(-c2nc3cccnn3c2-c2ccnc(Nc3cccc(C)c3C)c2)c1 [Example Compound 6-7, N-(2,3-dimethylphenyl)-4-[2-(3-methylphenyl)imidazo[1,2-b]pyridazin-3-yl]pyridin-2-amine]
Second: Cc1ccc(Nc2cc(-c3c(-c4cccc(C)c4)nc4cccnn34)ccn2)cc1 [Example Compound 6-8, N-(4-methylphenyl)-4-[2-(3-methylphenyl)imidazo[1,2-b]pyridazin-3-yl]pyridin-2-amine]
The melting point of the first is lower: 187 to 188 °C for the first, 213 to 214 °C for the second.

First: CSc1ccc(NC(=O)Nc2cc(-c3c(-c4ccc(F)c(C)c4)nc4cccnn34)ccn2)cc1 [Example 51-6, N-{4-[2-(4-fluoro-3-methylphenyl)imidazo[1,2-b]pyridazin-3-yl]pyridin-2-yl}-N′-[4-(methylthio)phenyl]urea]
Second: Cc1cc(-c2nc3cccnn3c2-c2ccnc(NC(=O)c3cccnc3C)c2)ccc1F [Example 42-29, N-{4-[2-(4-fluoro-3-methylphenyl)imidazo[1,2-b]pyridazin-3-yl]pyridin-2-yl}-2-methylnicotinamide]
The melting point of the first is lower: 219 to 220 °C for the first, 258 to 259 °C for the second.

First: Cc1cccc(-c2nc3ccc(Cl)nn3c2-c2ccnc(N)n2)c1 [Example 34, 4-[6-Chloro-2-(3-methylphenyl)imidazo[1,2-b]pyridazin-3-yl]-2-pyrimidinamine]
Second: Cc1cccc(-c2nc3cccnn3c2-c2ccnc(N)c2)c1 [Example 14, 4-[2-(3-Methylphenyl)imidazo[1,2-b]pyridazin-3-yl]pyridin-2-amine]
The melting point of the first is higher: 237 to 238 °C for the first, 188 to 189 °C for the second.

Compared with `CCNC(=O)Nc1cc(-c2c(-c3cccc(C)c3)nc3cccnn23)ccn1` [Example Compound 27-4, N-ethyl-N′-(4-[2-(3-methylphenyl)imidazo[1,2-b]pyridazin-3-yl]pyridin-2-yl)urea], `CCNC(=O)Nc1cc(-c2c(-c3ccc(Cl)cc3)nc3cccnn23)ccn1` [Example Compound 28-8, N-{4-[2-(4-chlorophenyl)imidazo[1,2-b]pyridazin-3-yl]pyridin-2-yl}-N′-ethylurea] is higher in melting point: 212 to 213 °C for the first, 223 to 224 °C for the second.

First: Cc1cc(-c2nc3cccnn3c2-c2ccnc(NC(=O)NCCCCl)c2)ccc1F [Example 47-4, N-(3-chloropropyl)-N′-{4-[2-(4-fluoro-3-methylphenyl)imidazo[1,2-b]pyridazin-3-yl]pyridin-2-yl}urea]
Second: Cc1cc(-c2nc3cccnn3c2-c2ccnc(NC(=O)NCC(C)O)c2)ccc1F (stereo not drawn) [Example 51-13, N-{4-[2-(4-fluoro-3-methylphenyl)imidazo[1,2-b]pyridazin-3-yl]pyridin-2-yl}-N′-(2-hydroxypropyl)urea]
The melting point of the first is higher: 170 to 171 °C for the first, 139 to 140 °C for the second.

Compared with `Cc1cccc(-c2nc3cccnn3c2-c2ccnc(NCCN3CCCCC3)c2)c1` [Example Compound 6-14, 4-[2-(3-methylphenyl)imidazo[1,2-b]pyridazin-3-yl]-N-[2-(piperidin-1-yl)ethyl]pyridin-2-amine], `Cc1cccc(-c2nc3cccnn3c2-c2ccnc(NC3CCC3)c2)c1` [Example Compound 6-3, N-cyclobutyl-4-[2-(3-methylphenyl)imidazo[1,2-b]pyridazin-3-yl]pyridin-2-amine] is higher in melting point: 143 to 144 °C for the first, 152 to 153 °C for the second.

First: Cc1cccc(-c2nc3cccnn3c2-c2ccnc(NCc3ccco3)c2)c1 [Example Compound 6-17, N-(2-furylmethyl)-4-[2-(3-methylphenyl)imidazo[1,2-b]pyridazin-3-yl]pyridin-2-amine]
Second: CCN(CC)CCNc1cc(-c2c(-c3cccc(C)c3)nc3cccnn23)ccn1 [Example Compound 6-19, N,N-diethyl-N′-{4-[2-(3-methylphenyl)imidazo[1,2-b]pyridazin-3-yl]pyridin-2-yl}ethane-1,2-diamine]
The melting point of the first is higher: 150 to 151 °C for the first, 97 to 98 °C for the second.
